# Laboratory results taken from patent publication US20210267977A1, “C[…] AFTER 5HT2A AGONISTS ADMINISTRATION” (Universitätsspital Basel, priority 2020, published 2021).
# Where two headings read alike, the source gives them in different places.
# Experiments:
# humans = details: cited from earlier work
# healthy subjects [1] = assay: Example 3 clinical study: subjective drug effects (VAS, 5D-ASC), ketanserin or placebo 1 hour after LSD; details: for duration of action of LSD: three subjects
# Protocol: (§1) Study design: The study used a double-blind, placebo-controlled, random-order 2-period cross-over design with 2 treatment conditions: 1) 100 μg LSD+ketanserin (40 mg) and 2) 100 μg LSD+placebo. Ketanserin or placebo was administered 1 hour after LSD. The washout periods between sessions were at least 10 days. The study was registered at ClinicalTrials.gov (NCT04558294).
# (§2) Participants: Healthy subjects (men and women) were recruited. Participants who were younger than 25 years old were excluded from participating in the study. Additional exclusion criteria were age >65 years, pregnancy (urine pregnancy test at screening and before each test session), personal or family (first-degree relative) history of major psychiatric disorders (assessed by the Semi-structured Clinical Interview for Diagnostic and Statistical Manual of Mental Disorders, 4th edition, Axis I disorders by a trained psychiatrist), the use of medications that may interfere with the study medications (e.g. antidepressants, antipsychotics, sedatives), chronic or acute physical illness (abnormal physical exam, electrocardiogram, or hematological and chemical blood analyses), tobacco smoking (>10 cigarettes/day), lifetime prevalence of illicit drug use >10 times (except for Δ^9-tetrahydrocannabinol), illicit drug use within the last 2 months, and illicit drug use during the study (determined by urine drug tests).
# (§3) Study drugs: LSD (D-lysergic acid diethylamide base, high-performance liquid chromatography purity >99%; Lipomed AG, Arlesheim, Switzerland) was administered as an oral solution in units containing 100 μg LSD in 1 mL of 96% ethanol (Holze et al., 2019). Ketanserin was obtained as the marketed drug (KETENSIN® (Janssen)) and encapsulated with opaque capsules to ensure blinding. Ketanserin placebo consisted of identical opaque capsules filled with mannitol.
# (§4) Study procedures: The study included a screening visit, two 13 hour test sessions (7:00 AM-8:00 PM), and an end-of-study visit. LSD was administered at 8:00 AM. Ketanserin (40 mg) or placebo was administered at 9:00 AM. The outcome measures were repeatedly assessed for 12 hours after LSD administration.
# Subjective drug effects: Subjective effects were assessed repeatedly using visual analog scales (VASs) 0, 0.5, 1, 1.5, 2, 2.5, 3, 3.5, 4, 5, 6, 7, 8, 9, 10, 11, and 12 hours after LSD administration. The VASs were presented as 100-mm horizontal lines (0-100%), marked from “not at all” on the left to “extremely” on the right. The 5D-ASC scale (Dittrich, 1998; Studerus et al., 2010) was administered 12 hours after LSD administration to retrospectively rate alterations in waking consciousness induced by the drugs. Autonomic, adverse, and endocrine effects: Blood pressure, heart rate, and tympanic body temperature were repeatedly measured 1 hour before and 0, 0.5, 1, 1.5, 2.5, 3, 3.5, 4, 5, 6, 7, 8, 9, 10, 11, and 12 hours after LSD administration as previously described in detail (Hysek et al., 2010). Adverse effects were systematically assessed up to 12 hours after drug administration using the 66-item List of Complaints (Zerssen, 1976).
# healthy subjects [2] = assay: Example 3 clinical study: cardiovascular and adverse effects (List of Complaints); details: for total of reported complaints on the LC list (mean±SEM): up to 12 hours after LSD
# Protocol: as §1, §2, §3, §4
# Subjective drug effects: Subjective effects were assessed repeatedly using visual analog scales (VASs) 0, 0.5, 1, 1.5, 2, 2.5, 3, 3.5, 4, 5, 6, 7, 8, 9, 10, 11, and 12 hours after LSD administration. […] Autonomic, adverse, and endocrine effects: Blood pressure, heart rate, and tympanic body temperature were repeatedly measured 1 hour before and 0, 0.5, 1, 1.5, 2.5, 3, 3.5, 4, 5, 6, 7, 8, 9, 10, 11, and 12 hours after LSD administration as previously described in detail (Hysek et al., 2010). Adverse effects were systematically assessed up to 12 hours after drug administration using the 66-item List of Complaints (Zerssen, 1976).
# 5HT2A receptor = biological target: T1, 5HT2A receptor (Homo sapiens, UniProt P28223); details: cited from earlier work
# T1 construct: ketanserin (40 mg orally) 1 hour prior to the oral administration of LSD; host or cells: human subjects (in vivo, endogenous receptor)
# T1 sequence (P28223 whole entry): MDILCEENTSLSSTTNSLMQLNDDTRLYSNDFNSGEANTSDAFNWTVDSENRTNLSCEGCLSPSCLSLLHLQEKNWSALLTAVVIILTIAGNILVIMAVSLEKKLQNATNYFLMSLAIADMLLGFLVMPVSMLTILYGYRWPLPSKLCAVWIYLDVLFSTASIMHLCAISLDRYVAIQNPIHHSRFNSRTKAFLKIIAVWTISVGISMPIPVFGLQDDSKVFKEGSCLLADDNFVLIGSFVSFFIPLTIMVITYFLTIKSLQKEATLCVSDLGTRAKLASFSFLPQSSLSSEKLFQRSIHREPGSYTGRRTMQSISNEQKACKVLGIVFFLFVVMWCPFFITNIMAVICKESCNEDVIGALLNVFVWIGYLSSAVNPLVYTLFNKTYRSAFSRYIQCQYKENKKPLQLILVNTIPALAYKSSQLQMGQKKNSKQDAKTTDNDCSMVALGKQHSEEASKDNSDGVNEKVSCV
# healthy subjects [3] = assay: Example 2 clinical study: autonomic and adverse effects (blood pressure, heart rate, body temperature, List of Complaints); details: ketanserin 40 mg before 200 μg LSD
# Excerpt: The washout periods between sessions were at least 10 days. The study was registered at ClinicalTrials.gov (NCT03321136).
# as §2, with “Participants” for “Participants: Healthy subjects (men and women) were recruited. Participants”, “tests). […]” for “tests).”
# Ketanserin (40 mg) or placebo was administered at 8:00 AM. […] The outcome measures were repeatedly assessed for 24 hours.
# Autonomic, adverse, and endocrine effects: Blood pressure, heart rate, and tympanic body temperature were repeatedly measured 1 hour before and 0, 0.5, 1, 1.5, 2.5, 3, 4, 5, 6, 7, 8, 9, 10, 11, 12, 14, 16, and 24 hours after drug administration as previously described in detail (Hysek et al., 2010). Adverse effects were systematically assessed 1 hour before and 12 and 24 hours after drug administration using the 66-item List of Complaints (Zerssen, 1976).
# Data analysis: Peak (Emax and/or Emin) or peak change from baseline (ΔEmax) values were determined for repeated measures. The values were then analyzed using repeated-measures analysis of variance (ANOVA), with drug as within-subjects factor, followed by Tukey post hoc comparisons using Statistica 12 software (StatSoft, Tulsa, Okla., USA). […]
# [4] = Example 2 clinical study: plasma LSD pharmacokinetics; details: ketanserin 40 mg before 200 μg LSD, one-compartment model
# Protocol: The blood samples were immediately centrifuged, and the plasma was subsequently stored at −80° C. until analysis.
# healthy subjects [5] = assay: Example 2 clinical study: subjective drug effects (VAS, AMRS, 5D-ASC, MEQ), ketanserin before LSD; type: in vivo, human; details: 16 subjects
# Protocol: The study was registered at ClinicalTrials.gov (NCT03321136).
# 100 μg LSD/100 μg LSD). […] Placebo consisted of identical opaque capsules filled with mannitol.
# LSD or placebo was administered at 9:00 AM. The outcome measures were repeatedly assessed for 24 hours.
# The VASs for “concentration”, and “perception of time” were bidirectional (±50%). Marked from “not at all” on the left (−50), to “normal” in the middle (0), to “extremely” on the right (+50) for concentration and “slowed” (−50) and “racing” (+50) for “perception of time”. […] Mystical experiences were assessed using the German version (Liechti et al., 2017) of the 100-item States of Consciousness Questionnaire (SOCQ) (Griffiths et al., 2006) that includes the 43-item and newer 30-item MEQ (MEQ43 (Griffiths et al., 2006) and MEQ30 (Barrett et al., 2015)). The 60-item Adjective Mood Rating Scale (AMRS) (Janke & Debus, 1978) was administered 1 hour before and 3, 6, 9, 12, and 24 hours after drug administration.
# The criterion for significance was p<0.05.
# [6] = 100 μg LSD + ketanserin 40 mg 1 hour after
# [7] = ketanserin 40 mg 1 hour after 100 μg LSD
# [8] = ketanserin 40 mg before 200 μg LSD, reduced to the level of 25 μg LSD
compound,measurement,setting,value
"CCN(CC)C(=O)[C@@H]1C=C2c3cccc4[nH]cc(c34)C[C@H]2N(C)C1 [LSD, Lysergic acid diethylamide]",duration of subjective effects (mean±SD),"humans; 100 μg LSD, Holze et al., 2019, range: 5.3-12.8 hour",8.5 ± 2.0 h
same,duration of LSD effects,"humans; 100 μg dose, Dolder et al., 2017, range: 5-14 hours",8.2 ± 2.1 h
same,duration of LSD effects,"humans; 200 μg dose, Dolder et al., 2017, range: 7-19.5 hours",11.6 ± 1.7 h
same,total 3D-OAV score,healthy subjects [1]; 100 μg LSD + placebo,34%
same,duration of action of LSD,healthy subjects [1]; 100 μg LSD + placebo 1 hour after,10 h
same,total of reported complaints on the LC list (mean±SEM),healthy subjects [2]; 100 μg LSD + placebo,7±3.6
O=C(c1ccc(F)cc1)C1CCN(CCn2c(=O)[nH]c3ccccc3c2=O)CC1 [ketanserin],effect on the LSD experience,"5HT2A receptor; ketanserin 40 mg orally 1 hour prior to LSD 200 μg, Liechti",similarly prevented the LSD experience
same,effect on the LSD experience,"5HT2A receptor; ketanserin 40 mg orally 1 hour prior to oral LSD 70-100 μg, Preller et al., 2017",prevent the LSD experience almost completely
same,acute adverse effects of 200 μg LSD (List of Complaints),healthy subjects [3],significantly prevented
same,LSD response on blood pressure,healthy subjects [3]; 16 subjects,transiently reduced the LSD response on blood pressure only up to 6 hours
same,LSD-induced heart rate response,healthy subjects [3]; 16 subjects,significantly prevented
same,total 3D-OAV score,healthy subjects [1]; [6],24%
same,duration of action of LSD,healthy subjects [1]; [6],4 h
same,"set-in of the ketanserin effect on the subjective response to LSD, time after ketanserin administration",healthy subjects [1]; [7],1 h
same,time to blockade of the LSD-typical effects,healthy subjects [1]; [7],within two hours
same,"typical mind altering effects of LSD on VAS (any drug effect, good drug effect, visual, auditory, synaesthetic, sense of time, ego-dissolution)",healthy subjects [1]; [7],very effectively reduced
same,reduction of the duration of action of LSD,healthy subjects [1]; ketanserin 40 mg 1 hour after 100 μg LSD vs placebo,approximately 60%
same,recurrence of the LSD effect,"healthy subjects [1]; ketanserin 40 mg 1 hour after 100 μg LSD, 12 hours observation",no recurrence of the LSD effect
same,nausea induced by LSD (VAS),"healthy subjects [1]; ketanserin 40 mg 1 hour after 100 μg LSD, more data needed",tended to reduce nausea
same,acute subjective psychedelic response to LSD,healthy subjects [1]; ketanserin 40 mg 1 hour after LSD base 100 μg,markedly shortened and also attenuated
same,feelings of tiredness (VAS),healthy subjects [1]; ketanserin 40 mg added to 100 μg LSD compared with placebo,increased feelings of tiredness
same,subjective feelings of stimulation (VAS),healthy subjects [1]; ketanserin 40 mg after 100 μg LSD compared with LSD alone,increased subjective feelings of stimulation
same,subjective effects of LSD on the 5D-ASC Scale,healthy subjects [1]; ketanserin 40 mg after 100 μg LSD in comparison with placebo,reduced the subjective effects of LSD
same,reduction of the total 3D-OAV score,healthy subjects [1]; ketanserin 40 mg after 100 μg LSD vs placebo,approximately 30%
same,total of reported complaints on the LC list (mean±SEM),healthy subjects [2]; 100 μg LSD + ketanserin 40 mg,8.3±4
same,"cardiovascular effects of LSD (blood pressure, heart rate, body temperature)",healthy subjects [2]; ketanserin 40 mg 1 hour after 100 μg LSD compared with placebo,no relevant effects on the cardiovascular effects of LSD
same,diastolic blood pressure,"healthy subjects [2]; ketanserin 40 mg 1 hour after 100 μg LSD, needing further study",transient decrease in diastolic blood pressure
same,effect on the PK of 200 μg LSD,[4],only minimally altered
same,LSD response on the AMRS,healthy subjects [5]; ketanserin 40 mg 1 hour before 200 μg LSD,"significantly prevented anxiety, introversion and emotional excitation"
same,overall subjective response to high-dose LSD,"healthy subjects [5]; ketanserin 40 mg 1 hour before 200 μg LSD, most P<0.001",reduced the subjective response to high-dose LSD approximately to the level of the 25 μg LSD dose
same,subjective effects on the 5D-ASC Scale,healthy subjects [5]; [8],significantly and markedly reduced
same,subjective effects on the MEQ and subscales 'Nadir' and 'Aesthetic experience' (SOCQ),healthy subjects [5]; [8],significantly and markedly reduced
